Measurements from PMC6222715, “Squalene Cyclases and Cycloartenol Synthases from Polystichum polyblepharum and Six Allied Ferns” (Molecules : A Journal of Synthetic Chemistry and Natural …, 2018).

Biological target: PPH (Polystichum polyblepharum, UniProt A0A3G9ELI1)
Test: product formation in yeast cells, GC
Format: cell-based
Settings: endogenous squalene accumulated with terbinafine; in vivo; phosphate pH 7.0

Sequence of PPH (A0A3G9ELI1 1-685): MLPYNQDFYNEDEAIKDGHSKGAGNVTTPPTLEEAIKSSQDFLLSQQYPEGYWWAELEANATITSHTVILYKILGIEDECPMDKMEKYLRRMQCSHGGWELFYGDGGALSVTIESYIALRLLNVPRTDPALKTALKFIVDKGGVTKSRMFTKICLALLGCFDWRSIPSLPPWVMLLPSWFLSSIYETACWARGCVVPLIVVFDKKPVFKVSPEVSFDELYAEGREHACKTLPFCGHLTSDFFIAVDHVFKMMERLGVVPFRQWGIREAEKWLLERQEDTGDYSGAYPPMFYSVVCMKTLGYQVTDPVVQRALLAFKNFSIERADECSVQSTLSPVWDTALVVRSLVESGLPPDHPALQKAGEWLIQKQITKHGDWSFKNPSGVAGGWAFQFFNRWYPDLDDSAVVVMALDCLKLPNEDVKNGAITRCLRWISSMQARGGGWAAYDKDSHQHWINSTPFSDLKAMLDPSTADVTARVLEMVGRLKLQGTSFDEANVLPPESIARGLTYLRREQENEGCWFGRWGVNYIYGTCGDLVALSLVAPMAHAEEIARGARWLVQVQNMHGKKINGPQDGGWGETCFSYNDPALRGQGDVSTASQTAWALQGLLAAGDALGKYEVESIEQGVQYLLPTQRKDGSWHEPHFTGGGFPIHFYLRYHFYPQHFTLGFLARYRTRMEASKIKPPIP

CC(C)=CCC/C(C)=C/CC/C(C)=C/CC/C=C(\C)CC/C=C(\C)CCC=C(C)C [compound 1, squalene]
product formation in yeast cells, GC: PPH could use the accumulated endogenous squalene as an in vivo substrate
